Test results: BigSolDB 2.1

N[C@@H](C(=O)O)c1ccc(O)cc1
Conditions | solubility (mole fraction)
in DMF, 278.27 K | 1.99e-05
in DMF, 283.23 K | 2.39e-05
in DMF, 288.18 K | 2.67e-05
in DMF, 293.2 K | 3.38e-05
in DMF, 298.39 K | 4.03e-05
in DMF, 303.18 K | 4.93e-05
in DMF, 308.26 K | 6e-05
in DMF, 313.2 K | 7.04e-05
in DMF, 318.39 K | 8.68e-05
in DMF, 323.15 K | 0.000102
in ethanol, 278.28 K | 9.26e-05
in ethanol, 283.42 K | 9.3e-05
in ethanol, 288.18 K | 9.34e-05
in ethanol, 293.24 K | 9.37e-05
in ethanol, 298.38 K | 9.4e-05
in ethanol, 303.17 K | 9.42e-05
in ethanol, 308.39 K | 9.43e-05
in ethanol, 313.19 K | 9.44e-05
in ethanol, 318.37 K | 9.45e-05
in ethanol, 323.26 K | 9.45e-05
in methanol, 278.17 K | 0.00042
in methanol, 283.22 K | 0.000421
in methanol, 288.21 K | 0.000421
in methanol, 293.28 K | 0.000423
in methanol, 298.24 K | 0.000424
in methanol, 303.32 K | 0.000425
in methanol, 308.2 K | 0.000426
in methanol, 313.26 K | 0.000427
in methanol, 318.27 K | 0.000429
in methanol, 323.25 K | 0.00043
in tetrachloromethane, 278.38 K | 0.000225
in tetrachloromethane, 283.23 K | 0.000227
in tetrachloromethane, 288.38 K | 0.000231
in tetrachloromethane, 293.36 K | 0.000234
in tetrachloromethane, 298.29 K | 0.000239
in tetrachloromethane, 303.21 K | 0.000244
in tetrachloromethane, 308.36 K | 0.00025
in tetrachloromethane, 313.3 K | 0.000258
in tetrachloromethane, 318.24 K | 0.000264
in tetrachloromethane, 323.19 K | 0.000272
in toluene, 278.28 K | 0.000157
in toluene, 283.33 K | 0.000164
in toluene, 288.38 K | 0.000165
in toluene, 293.32 K | 0.000172
in toluene, 298.23 K | 0.000175
in toluene, 303.32 K | 0.00018
in toluene, 308.39 K | 0.000189
in toluene, 313.37 K | 0.000195
in toluene, 318.17 K | 0.000205
in toluene, 323.27 K | 0.000216
in water, 278.27 K | 0.0018
in water, 283.25 K | 0.00186
in water, 288.37 K | 0.00194
in water, 293.17 K | 0.00203
in water, 298.26 K | 0.00215
in water, 303.29 K | 0.00229
in water, 308.26 K | 0.00244
in water, 313.28 K | 0.00261
in water, 318.17 K | 0.00279
in water, 323.21 K | 0.00299
